Assay [1] concerns the target Tie2 (Homo sapiens, UniProt Q02763). Put plainly: Tie-2-Kinase HTRF-Assay without kinase preactivation (assay 2). More on the design: fusion protein of GST and the intracellular domains of Tie-2; GST; made in house; host or cells: insect cells (Hi-5). Particulars: GST-Tie-2 without preactivation, 10 μM ATP; pIC50 = -log IC50 molar. In kind it is biochemical. The text has this:
Tie2-inhibitory activity of compounds of the present invention was quantified employing two Tie2 HTRF assay as described in the following paragraphs.
A recombinant fusion protein of GST and the intracellular domains of Tie-2, expressed in insect cells (Hi-5) and purified by Glutathion-Sepharose affinity chromatography was used as kinase. Alternatively, commercially available GST-Tie2-fusion protein (Upstate Biotechnology, Dundee, Scotland) can be used As substrate for the kinase reaction the biotinylated peptide biotin-Ahx-EPKDDAYPLYSDFG (C-terminus in amid form) was used which can be purchased e.g. from the company Biosynthan GmbH (Berlin-Buch, Germany). Detection of phosphorylated product is achieved specifically by a trimeric detection complex consisting of the phosphorylated substrate, streptavidin-XLent (SA-XLent) which binds to biotin, and Europium Cryptate-labeled anti-phosphotyrosine antibody PT66 which binds to phosphorylated tyrosine.
Tie-2 (3.5 ng/measurement point) was incubated for 60 min at 22° C. in the presence of 10 μM adenosine-tri-phosphate (ATP) and 1 μM substrate peptide (biotin-Ahx-EPKDDAYPLYSDFG-NH2) with different concentrations of test compounds (0 μM and concentrations in the range 0.001-20 μM) in 5 μl assay buffer [50 mM Hepes/NaOH pH 7, 10 mM MgCl2, 0.5 mM MnCl2, 1.0 mM dithiothreitol, 0.01% NP40, protease inhibitor mixture (“Complete w/o EDTA” from Roche, 1 tablet per 2.5 ml), 1% (v/v) dimethylsulfoxide]. The reaction was stopped by the addition of 5 μl of an aqueous buffer (25 mM Hepes/NaOH pH 7.5, 0.28% (w/v) bovine serum albumin) containing EDTA (90 mM) and the HTRF (Homogeneous Time Resolved Fluorescence) detection reagents streptavidine-XLent (0.2 μM, from Cis Biointernational, Marcoule, France) and PT66-Eu-Chelate (0.3 ng/μl; a europium-chelate labelled anti-phospho-tyrosine antibody from Perkin Elmer).
(§1) The resulting mixture was incubated 1 h at 22° C. to allow the binding of the biotinylated phosphorylated peptide to the streptavidine-XLent and the PT66-Eu-Chelate. Subsequently the amount of phosphorylated substrate peptide was evaluated by measurement of the resonance energy transfer from the PT66-Eu-Chelate to the streptavidine-XLent. Therefore, the fluorescence emissions at 620 nm and 665 nm after excitation at 350 nm was measured in a HTRF reader, e.g. a Rubystar (BMG Labtechnologies, Offenburg, Germany) or a Viewlux (Perkin-Elmer). The ratio of the emissions at 665 nm and at […] was taken as the measure for the amount of phosphorylated substrate peptide. The data were normalised (enzyme reaction without inhibitor=0% inhibition, all other assay components but no enzyme=100% inhibition) and IC50 values were calculated by a 4 parameter fit using an inhouse software.

Assay [2] addresses T1, human insuline receptor (Ins-R) kinase domain (Homo sapiens, UniProt P06213).
T1 construct: GST-tagged recombinant kinase domain of the human insuline receptor; GST; purchased ProQinase, Freiburg, Germany; host or cells: SF-9 cells
Put plainly: InsR HTRF assay (assay 4). Particulars: IC50 assay 4/IC50 assay 2. The assay is classed as biochemical. As for the experimental part: Inhibitory activity of compounds against the kinase activity of the insulin receptor was quantified employing the Ins-R HTRF assay as described in the following paragraphs.
GST-tagged recombinant kinase domain of the human insuline receptor (Ins-R, purchase from ProQinase, Freiburg, Germany) expressed in SF-9 cells was used as kinase. As substrate for the kinase reaction biotinylated poly-(Glu,Tyr) (Cis biointernational, France) was used.
Ins-R was incubated for 20 min at 22° C. in the presence of different concentrations of test compounds in 5 μl assay buffer [50 mM Hepes/NaOH pH 7, 15 mM MnCl2, 1 mM dithiothreitol, 0.1 μM sodium ortho-vanadate, 0.015% (v/v) PEG20000, 10 μM adenosine-tri-phosphate (ATP), 0.3 μg/ml substrate, 1% (v/v) dimethylsulfoxide]. The concentration of Ins-R was adjusted depending of the activity of the enzyme lot and was chosen appropriate to have the assay in the linear range, typical concentrations were in the range of 10 pg/μl. The reaction was stopped by the addition of 5 μl of a solution of HTRF detection reagents (0.1 μM streptavidine-XLent and 1 nM PT66-Eu-Chelate, an europium-chelate labelled anti-phosphotyrosine antibody from Perkin Elmer) in an aqueous EDTA-solution (80 mM EDTA, 0.2% (w/v) bovine serum albumin in 50 mM HEPES/NaOH pH 7.0).
as §1, with “substrate” for “substrate peptide”, “substrate.” for “substrate peptide.”

Six molecules from patent US7846928B2, “Substituted pyrazolopyridines and salts thereof, pharmaceutical compositions comprising same, methods of preparing same and uses of same” (Bayer Schering Pharma AG, priority 2006, dated 2010) can be followed below.

Sequence of Tie2 (Q02763 770-1124 limits assumed): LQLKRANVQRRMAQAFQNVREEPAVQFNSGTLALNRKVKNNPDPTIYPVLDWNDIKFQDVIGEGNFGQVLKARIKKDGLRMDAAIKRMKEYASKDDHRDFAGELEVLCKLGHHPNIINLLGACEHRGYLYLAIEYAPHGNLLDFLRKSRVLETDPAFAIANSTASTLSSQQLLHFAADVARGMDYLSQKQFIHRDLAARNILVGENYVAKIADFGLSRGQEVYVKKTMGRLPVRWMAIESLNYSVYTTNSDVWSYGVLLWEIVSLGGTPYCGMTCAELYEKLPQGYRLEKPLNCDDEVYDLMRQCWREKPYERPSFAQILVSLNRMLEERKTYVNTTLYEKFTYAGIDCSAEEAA
T1 sequence (P06213 1023-1298 limits assumed): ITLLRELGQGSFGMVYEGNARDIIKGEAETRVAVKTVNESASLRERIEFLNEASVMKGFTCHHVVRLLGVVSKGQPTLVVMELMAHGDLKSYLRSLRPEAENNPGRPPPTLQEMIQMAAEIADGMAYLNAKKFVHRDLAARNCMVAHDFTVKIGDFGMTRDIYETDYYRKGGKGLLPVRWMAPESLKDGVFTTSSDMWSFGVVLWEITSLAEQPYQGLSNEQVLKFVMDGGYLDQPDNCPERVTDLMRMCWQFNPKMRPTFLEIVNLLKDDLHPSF

Consider `O=C(Nc1ccc(-c2ccnc3[nH]ncc23)cc1)Nc1cccc(C(F)(F)F)c1` [1.20, 1-[4-(1H-Pyrazolo[3,4-b]pyridin-4-yl)-phenyl]-3-(3-trifluoromethyl-phenyl)-urea], for which the IC50 in assay [1] was < 501 nM. For the same molecule, the “Selectivity vs. InsR” value in assay [2] is >20 fold.

Consider `Cc1ccc(F)c(NC(=O)Nc2ccc(-c3ccnc4c3cnn4C)cc2)c1` [1.7, 1-(2-Fluoro-5-methyl-phenyl)-3-[4-(1-methyl-1H-pyrazolo[3,4-b]pyridin-4-yl)-phenyl]-urea], for which the IC50 in assay [1] is < 501 nM. Moreover, in assay [2], the “Selectivity vs. InsR” value is on record as >20 fold.

For `CC(C)c1cc(-c2ccc(NC(=O)Nc3cccc(C(F)(F)F)c3)cc2)c2cnn(C)c2n1` [1.3, 1-[4-(6-Isopropyl-1-methyl-1H-pyrazolo[3,4-b]pyridin-4-yl)-phenyl]-3-(3-trifluoromethyl-phenyl)-urea], the IC50 in assay [1] is < 501 nM. Also, the “Selectivity vs. InsR” value in assay [2] is >20 fold.

As to `Cc1ccc(F)c(NC(=O)Nc2ccc(-c3cc(C4(C(=O)N(C)C)CC4)nc4c3cnn4C)cc2)c1` [1.29, 1-(4-{4-[3-(2-Fluoro-5-methyl-phenyl)-ureido]-phenyl}-1-methyl-1H-pyrazolo[3,4-b]pyridin-6-yl)-cyclopropane-carboxylic acid dimethylamide], in assay [1], the IC50 is < 501 nM. The “Selectivity vs. InsR” value in assay [2] was >20 fold.

Consider `Cc1ccc(F)c(NC(=O)Nc2ccc(-c3ccnc4[nH]ncc34)cc2)c1` [1.22, 1-(2-Fluoro-5-methyl-phenyl)-3-[4-(1H-pyrazolo[3,4-b]pyridin-4-yl)-phenyl]-urea], for which the IC50 in assay [1] lay in the range of 501 to 1000 nM. In addition, in assay [2], the “Selectivity vs. InsR” value is recorded as >20 fold.

As to `Cn1ncc2c(-c3ccc(NC(=O)Nc4cccc(C(F)(F)F)c4)cc3)cc(CN3CCOCC3)nc21` [3.2, 1-[4-(1-Methyl-6-morpholin-4-ylmethyl-1H-pyrazolo[3,4-b]pyridin-4-yl)-phenyl]-3-(3-trifluoromethyl-phenyl)-urea], in assay [1], the IC50 is < 501 nM. Moreover, in assay [2], the “Selectivity vs. InsR” value is reported as >20 fold.
